Reference: PubChem BioAssay AID1963422 (Molecular Pharmacology Branch, DTP, NCI, 2024)
pIC50: −log10 of the molar value.

Tested on: 463943-066-T-J2-PDC complex spheroid growth
Experiment: Anticancer human tumor 463943-066-T-J2-PDC patient-derived colon adenocarcinoma cell line growth inhibition [Asc]
Conditions: for pIC50: curve of first compound; for viability, T/C: stronger effect = lower value
Outline: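 Complex spheroids combining tumor cells with HUVEC endothelial cells and human MSCs, at 37 degrees C, 5% CO2; agents tested alone or combined, half-log dilutions from at or near clinical Cmax, or 10 microM if Cmax unknown.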
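Further: compound exposure lasted 7 days.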
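Wherever viability, T/C is given: 100% = DMSO vehicle control wells.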

In the case of `Cc1nc(N2CCC3(CC2)COC(C)C3N)c(CO)nc1Sc1ccnc(N)c1Cl` (centres undefined) + CCN1C(C(=O)NC23CCC(C(=O)O)(CC2)CC3)C(c2cccc(Cl)c2F)C2(C(=O)Nc3cc(Cl)ccc32)C12CCCCC2, the pIC50 (second compound 0.00949 µM) was under 5.52, the pIC50 (second compound 0.03 µM) was under 5.52 and the pIC50 (second compound 0.0949 µM) was under 5.52. The pIC50 (second compound 0.3 µM) was under 5.52, the pIC50 (second compound 0.949 µM) was under 5.52 and the pIC50 (second compound 3 µM) was under 5.52. For the same molecule, the viability, T/C (second compound 0.00949 µM, first compound 0.00949 µM) was 96.7%, the viability, T/C (second compound 0.00949 µM, first compound 0.03 µM) was 88% and the viability, T/C (second compound 0.00949 µM, first compound 0.0949 µM) was 87%. For the same molecule, the viability, T/C (second compound 0.00949 µM, first compound 0.3 µM) was 81.5%, the viability, T/C (second compound 0.00949 µM, first compound 0.949 µM) was 82.3% and the viability, T/C (second compound 0.00949 µM, first compound 3 µM) was 63.6%. For the same molecule, the viability, T/C (second compound 0.03 µM, first compound 0.00949 µM) was 91%, the viability, T/C (second compound 0.03 µM, first compound 0.03 µM) was 91.3% and the viability, T/C (second compound 0.03 µM, first compound 0.0949 µM) was 81.2%. For the same molecule, the viability, T/C (second compound 0.03 µM, first compound 0.3 µM) was 82.2%, the viability, T/C (second compound 0.03 µM, first compound 0.949 µM) was 74% and the viability, T/C (second compound 0.03 µM, first compound 3 µM) was 60%. For the same molecule, the viability, T/C (second compound 0.0949 µM, first compound 0.00949 µM) was 90.1%, the viability, T/C (second compound 0.0949 µM, first compound 0.03 µM) was 86.8% and the viability, T/C (second compound 0.0949 µM, first compound 0.0949 µM) was 76.2%. It also gave a viability, T/C (second compound 0.0949 µM, first compound 0.3 µM) of 75.7%, a viability, T/C (second compound 0.0949 µM, first compound 0.949 µM) of 71.5% and a viability, T/C (second compound 0.0949 µM, first compound 3 µM) of 61.9%. It also gave a viability, T/C (second compound 0.3 µM, first compound 0.00949 µM) of 82.7%, a viability, T/C (second compound 0.3 µM, first compound 0.03 µM) of 82.5% and a viability, T/C (second compound 0.3 µM, first compound 0.0949 µM) of 82.5%. For the same molecule, the viability, T/C (second compound 0.3 µM, first compound 0.3 µM) was 72.2%, the viability, T/C (second compound 0.3 µM, first compound 0.949 µM) was 64% and the viability, T/C (second compound 0.3 µM, first compound 3 µM) was 59.1%. It also gave a viability, T/C (second compound 0.949 µM, first compound 0.00949 µM) of 74.3%, a viability, T/C (second compound 0.949 µM, first compound 0.03 µM) of 72.2% and a viability, T/C (second compound 0.949 µM, first compound 0.0949 µM) of 62.7%. It also gave a viability, T/C (second compound 0.949 µM, first compound 0.3 µM) of 62.3%, a viability, T/C (second compound 0.949 µM, first compound 0.949 µM) of 60.3% and a viability, T/C (second compound 0.949 µM, first compound 3 µM) of 53.2%. For the same molecule, the viability, T/C (second compound 3 µM, first compound 0.00949 µM) was 70.7%, the viability, T/C (second compound 3 µM, first compound 0.03 µM) was 64.6% and the viability, T/C (second compound 3 µM, first compound 0.0949 µM) was 64.1%. For the same molecule, the viability, T/C (second compound 3 µM, first compound 0.3 µM) was 63%, the viability, T/C (second compound 3 µM, first compound 0.949 µM) was 60.6% and the viability, T/C (second compound 3 µM, first compound 3 µM) was 49.6%.

`O=C(c1cc(Cc2n[nH]c(=O)c3ccccc23)ccc1F)N1CCN(C(=O)C2CC2)CC1` + CNC(C)C(=O)NC1CN(S(=O)(=O)c2cccc(S(=O)(=O)N3CCC4CCC(C(=O)NC(c5ccccc5)c5ccccc5)N4C(=O)C(NC(=O)C(C)NC)C3)c2)CCC2CCC(C(=O)NC(c3ccccc3)c3ccccc3)N2C1=O showed a pIC50 (second compound 0.00316 µM) of under 5.00, a pIC50 (second compound 0.01 µM) of under 5.00 and a pIC50 (second compound 0.0316 µM) of under 5.00. For the same molecule, the pIC50 (second compound 0.1 µM) was under 5.00, the pIC50 (second compound 0.316 µM) was under 5.00 and the pIC50 (second compound 1 µM) was under 5.00. For the same molecule, the viability, T/C (second compound 0.00316 µM, first compound 0.0316 µM) was 91.4%, the viability, T/C (second compound 0.00316 µM, first compound 0.1 µM) was 95.9% and the viability, T/C (second compound 0.00316 µM, first compound 0.316 µM) was 96.9%. The viability, T/C (second compound 0.00316 µM, first compound 1 µM) was 103%, the viability, T/C (second compound 0.00316 µM, first compound 3.16 µM) was 89.4% and the viability, T/C (second compound 0.00316 µM, first compound 10 µM) was 86.2%. It also gave a viability, T/C (second compound 0.01 µM, first compound 0.0316 µM) of 94.1%, a viability, T/C (second compound 0.01 µM, first compound 0.1 µM) of 87.5% and a viability, T/C (second compound 0.01 µM, first compound 0.316 µM) of 91.9%. For the same molecule, the viability, T/C (second compound 0.01 µM, first compound 1 µM) was 97.5%, the viability, T/C (second compound 0.01 µM, first compound 3.16 µM) was 110% and the viability, T/C (second compound 0.01 µM, first compound 10 µM) was 87.6%. The viability, T/C (second compound 0.0316 µM, first compound 0.0316 µM) was 98.1%, the viability, T/C (second compound 0.0316 µM, first compound 0.1 µM) was 100% and the viability, T/C (second compound 0.0316 µM, first compound 0.316 µM) was 97.4%. For the same molecule, the viability, T/C (second compound 0.0316 µM, first compound 1 µM) was 99.2%, the viability, T/C (second compound 0.0316 µM, first compound 3.16 µM) was 92.8% and the viability, T/C (second compound 0.0316 µM, first compound 10 µM) was 82.9%. The viability, T/C (second compound 0.1 µM, first compound 0.0316 µM) was 106%, the viability, T/C (second compound 0.1 µM, first compound 0.1 µM) was 93.3% and the viability, T/C (second compound 0.1 µM, first compound 0.316 µM) was 90.6%. The viability, T/C (second compound 0.1 µM, first compound 1 µM) was 95.8%, the viability, T/C (second compound 0.1 µM, first compound 3.16 µM) was 91.3% and the viability, T/C (second compound 0.1 µM, first compound 10 µM) was 86.2%. The viability, T/C (second compound 0.316 µM, first compound 0.0316 µM) was 90.9%, the viability, T/C (second compound 0.316 µM, first compound 0.1 µM) was 91.8% and the viability, T/C (second compound 0.316 µM, first compound 0.316 µM) was 85.1%. The viability, T/C (second compound 0.316 µM, first compound 1 µM) was 98.1%, the viability, T/C (second compound 0.316 µM, first compound 3.16 µM) was 87.2% and the viability, T/C (second compound 0.316 µM, first compound 10 µM) was 91.3%. For the same molecule, the viability, T/C (second compound 1 µM, first compound 0.0316 µM) was 90.5%, the viability, T/C (second compound 1 µM, first compound 0.1 µM) was 95% and the viability, T/C (second compound 1 µM, first compound 0.316 µM) was 84.4%. It also gave a viability, T/C (second compound 1 µM, first compound 1 µM) of 89.7%, a viability, T/C (second compound 1 µM, first compound 3.16 µM) of 85.9% and a viability, T/C (second compound 1 µM, first compound 10 µM) of 80.9%.
